Test results from PubChem BioAssay (NCI).
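Step 1: Grow cells in 96-well plates. Step 2: Expose to compound for 48 hours at 5 concentrations. Step 3: Interpolate endpoints linearly; if unreached, use highest concentration. TGI is the concentration that stops growth completely.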

Key:
Assay in all cases: NCI tumour cell line growth inhibition, 48 h
[1] = system: CAKI-1 renal
[2] = system: CCRF-CEM leukemia
[3] = system: COLO 205 colon
[4] = system: DMS 273 small cell lung
[5] = system: HL-60(TB) leukemia
[6] = system: KM20L2 colon
[7] = system: LOX IMVI melanoma
[8] = system: M14 melanoma
[9] = system: NCI-H460 lung
[10] = system: OVCAR-3 ovarian
[11] = system: OVCAR-5 ovarian
[12] = system: OVCAR-8 ovarian
[13] = system: RPMI-8226 leukemia
[14] = system: RXF 393 renal
[15] = system: SF-268 CNS
[16] = system: SK-MEL-5 melanoma
[17] = system: SK-OV-3 ovarian
[18] = system: SNB-19 CNS
[19] = system: SR leukemia
[20] = system: U251 CNS

Measured: TGI

Cc1ccc2c(=O)c3ccccc3sc2c1
> 100 µM: all assays above
